According to patent publication US10294229B2, “Heteroaryl substituted aminopyridine compounds” (BRISTOL-MYERS SQUIBB COMPANY, priority 2015, dated 2019):

Assays:
[1] = target: IRAK4 (Homo sapiens (Human), UniProt Q9NWZ3); assay: IRAK4 Inhibition Assay; format: biochemical; details: ATP 500 μM; IRAK4 0.6 nM
Outline: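 Mobility-shift kinase assay: 0.6 nM IRAK4, 500 μM ATP, 1.5 μM fluorescent peptide, 60 min, room temperature. Percent inhibition was normalised between enzyme-free and DMSO-only wells.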

[2] = system: Human whole blood stimulated with a TLR2 agonist (lipoteichoic acid), IL-6 levels; assay: IRAK4 Whole Blood Assay; format: cell-based; details: lipoteichoic acid 10 μg/mL
Outline: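 IL-6 was quantified by cytometric bead assay in supernatants of human blood (ACD-A) stimulated for 5 h with lipoteichoic acid at 10 μg/mL final. Compound exposure preceded stimulation for 60 min at 37 °C, 5% CO2.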

IRAK4, sequence (Q9NWZ3 whole entry, species assumed): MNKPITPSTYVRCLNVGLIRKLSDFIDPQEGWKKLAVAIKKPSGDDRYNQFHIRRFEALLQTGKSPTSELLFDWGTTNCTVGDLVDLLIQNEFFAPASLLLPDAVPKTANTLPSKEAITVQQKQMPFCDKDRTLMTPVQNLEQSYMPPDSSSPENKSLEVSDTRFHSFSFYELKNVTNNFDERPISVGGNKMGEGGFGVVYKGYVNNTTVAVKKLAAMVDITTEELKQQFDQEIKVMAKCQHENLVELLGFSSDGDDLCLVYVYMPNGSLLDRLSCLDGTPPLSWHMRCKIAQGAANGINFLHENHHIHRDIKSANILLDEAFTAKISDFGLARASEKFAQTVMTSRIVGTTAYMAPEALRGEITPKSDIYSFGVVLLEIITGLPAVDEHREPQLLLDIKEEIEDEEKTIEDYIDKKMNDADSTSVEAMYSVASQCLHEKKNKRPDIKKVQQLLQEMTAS

| SMILES | IC50 [1] | EC50 ([2]; Homo sapiens) | EC50 [2] |
| --- | --- | --- | --- |
| CCC(O)Cc1cn(-c2cnc(-n3ncc4cc(C#N)cnc43)cc2NC(C)C)nn1 (stereo not drawn) [Example 303, 1-(5-(4-(2-hydroxybutyl)-1H-1,2,3-triazol-1-yl)-4-(isopropylamino)pyridin-2-yl)-1H-pyrazolo[3,4-b]pyridine-5-carbonitrile] | 16 nM | 1180 nM |  |
| CC(C)Nc1cc(-n2ncc3cc(C#N)cnc32)ncc1-c1cn(CC(O)CO)nn1 (stereo not drawn) [Example 131, 1-(5-(1-(2,3-dihydroxypropyl)-1H-1,2,3-triazol-4-yl)-4-(isopropylamino)pyridin-2-yl)-1H-pyrazolo[3,4-b]pyridine-5-carbonitrile] | 12 nM | 1080 nM |  |
| CC(C)Nc1cc(-n2ncc3cc(C#N)cnc32)ncc1-c1cn(CCS(C)(=O)=O)nn1 [Example 116, 1-(4-(isopropylamino)-5-(1-(2-(methylsulfonyl)ethyl)-1H-1,2,3-triazol-4-yl)pyridin-2-yl)-1H-pyrazolo[3,4-b]pyridine-5-carbonitrile] | 3 nM | 210 nM |  |
| CC(C)Nc1cc(-n2ncc3cc(C#N)cnc32)ncc1-c1cn(C2CN(C(=O)CC3CC3)C2)nn1 [Example 139, 1-(5-(1-(1-(2-cyclopropylacetyl)azetidin-3-yl)-1H-1,2,3-triazol-4-yl)-4-(isopropylamino)pyridin-2-yl)-1H-pyrazolo[3,4-b]pyridine-5-carbonitrile] | 4 nM | 1090 nM |  |
| CC(C)Nc1cc(-n2ncc3cc(C#N)cnc32)ncc1-c1cn(C2CN(C(=O)OC(C)(C)C)C2)nn1 [Example 113, tert-butyl 3-(4-(6-(5-cyano-1H-pyrazolo [3,4-b]pyridin-1-yl)-4-(isopropylamino)pyridin-3-yl)-1H-1,2,3-triazol-1-yl)azetidine-1-carboxylate] | 13 nM | 1860 nM |  |
| CC(C)Nc1cc(-n2ncc3cc(C#N)cnc32)ncc1-n1cc(C2CCN(C(=O)OC(C)(C)C)CC2)nn1 [Example 333, tert-butyl 4-(1-(6-(5-cyano-1H-pyrazolo[3,4-b]pyridin-1-yl)-4-(isopropylamino)pyridin-3-yl)-1H-1,2,3-triazol-4-yl)piperidine-1-carboxylate] | 14 nM | 4700 nM |  |
| CC(C)(O)CCc1cn(-c2cnc(-n3ncc4cc(C#N)cnc43)cc2NC(C)(C)CO)nn1 [Example 381, 1-(4-((1-hydroxy-2-methylpropan-2-yl)amino)-5-(4-(3-hydroxy-3-methylbutyl)-1H-1,2,3-triazol-1-yl)pyridin-2-yl)-1H-pyrazolo[3,4-b]pyridine-5-carbonitrile] | 2 nM | 250 nM |  |
| CCOCC(O)Cn1cc(-c2cnc(-n3ncc4cc(C#N)cnc43)cc2NC(C)C)nn1 (stereo not drawn) [Example 137, 1-(5-(1-(3-ethoxy-2-hydroxypropyl)-1H-1,2,3-triazol-4-yl)-4-(isopropylamino)pyridin-2-yl)-1H-pyrazolo[3,4-b]pyridine-5-carbonitrile] | 8 nM | 1690 nM |  |
| CC(C)Nc1cc(-n2ncc3cc(C#N)cnc32)ncc1-n1cc(CCCC#N)nn1 [Example 323, 1-(5-(4-(3-cyanopropyl)-1H-1,2,3-triazol-1-yl)-4-(isopropylamino)pyridin-2-yl)-1H-pyrazolo[3,4-b]pyridine-5-carbonitrile] | 6 nM | 1310 nM |  |
| CC(C)Nc1cc(-n2ncc3cc(C#N)cnc32)ncc1-c1cc(C2CCCOC2)no1 (stereo not drawn) [Example 416, 1-(4-(isopropylamino)-5-(3-(tetrahydro-2H-pyran-3-yl)isoxazol-5-yl)pyridin-2-yl)-1H-pyrazolo[3,4-b]pyridine-5-carbonitrile] | 2 nM | 480 nM |  |
| CC(C)Nc1cc(-n2ncc3cc(C#N)cnc32)ncc1-c1nnc(N[C@H]2CC[C@H](N)CC2)o1 [Example 434, 1-(5-(5-(((1R,4R)-4-aminocyclohexyl)amino)-1,3,4-oxadiazol-2-yl)-4-(isopropylamino)pyridin-2-yl)-1H-pyrazolo[3,4-b]pyridine-5-carbonitrile] | 4 nM | 330 nM |  |
| CC(C)Nc1cc(-n2ncc3cc(C#N)cnc32)ncc1-n1cc(CS(=O)(=O)c2ccccc2)nn1 [Example 332, 1-(4-(isopropylamino)-5-(4-((phenylsulfonyl)methyl)-1H-1,2,3-triazol-1-yl)pyridin-2-yl)-1H-pyrazolo[3,4-b]pyridine-5-carbonitrile] | 9 nM | 2050 nM |  |
| CC(C)Nc1cc(-n2ncc3cc(C#N)cnc32)ncc1-c1cn(-c2ccccc2F)nn1 [Example 20, 1-(5-(1-(2-fluorophenyl)-1H-1,2,3-triazol-4-yl)-4-(isopropylamino)pyridin-2-yl)-1H-pyrazolo [3,4-b]pyridine-5-carbonitrile] | 7 nM | 20000 nM |  |
| CC(C)Nc1cc(-n2ncc3cc(C#N)c(N)nc32)ncc1-c1cn(C[C@H](C)O)nn1 [Example 70, (S)-6-amino-1-(5-(1-(2-hydroxypropyl)-1H-1,2,3-triazol-4-yl)-4-(isopropylamino)pyridin-2-yl)-1H-pyrazolo[3,4-b]pyridine-5-carbonitrile] | 5 nM | 3960 nM |  |
| CC(=O)N1CCN(C(=O)Cn2cc(-c3cnc(-n4ncc5cc(C#N)cnc54)cc3NC(C)C)nn2)CC1 [Example 194, 1-(5-(1-(2-(4-acetylpiperazin-1-yl)-2-oxoethyl)-1H-1,2,3-triazol-4-yl)-4-(isopropylamino)pyridin-2-yl)-1H-pyrazolo[3,4-b]pyridine-5-carbonitrile] | 6 nM | 620 nM |  |
| CC(C)Nc1cc(-n2ncc3cc(C#N)cnc32)ncc1-c1cn([C@@H](C)[C@H](C)O)nn1 (single isomer, unassigned) [Example 91] | 5 nM |  | 1920 nM |
| CC(C)Nc1cc(-n2ncc3cc(C#N)cnc32)ncc1-n1cc(CCC#N)nn1 [Example 321, 1-(5-(4-(2-cyanoethyl)-1H-1,2,3-triazol-1-yl)-4-(isopropylamino)pyridin-2-yl)-1H-pyrazolo[3,4-b]pyridine-5-carbonitrile] | 18 nM | 570 nM |  |
| CC(C)Nc1cc(-n2ncc3cc(C#N)cnc32)ncc1C1=NOC(CCC(C)(C)O)C1 (stereo not drawn) [Example 437, 1-(5-(5-(3-hydroxy-3-methylbutyl)-4,5-dihydroisoxazol-3-yl)-4-(isopropylamino)pyridin-2-yl)-1H-pyrazolo[3,4-b]pyridine-5-carbonitrile] | 2 nM | 210 nM |  |
| CC(C)Nc1cc(-n2ncc3cnc(N)nc32)ncc1-n1cc(CCC(C)(C)O)nn1 [Example 380, 4-(1-(6-(6-amino-1H-pyrazolo[3,4-d]pyrimidin-1-yl)-4-(isopropylamino)pyridin-3-yl)-1H-1,2,3-triazol-4-yl)-2-methylbutan-2-ol] | 6 nM |  | 460 nM |
| CC(C)Cn1cnc(-c2cnc(-n3ncc4cc(C#N)cnc43)cc2NC(C)C)c1 [Example 221, 1-(5-(1-isobutyl-1H-imidazol-4-yl)-4-(isopropylamino)pyridin-2-yl)-1H-pyrazolo[3,4-b]pyridine-5-carbonitrile] | 12 nM | 2210 nM |  |
| CC(C)Nc1cc(-n2ncc3cc(C#N)cnc32)ncc1-c1cn([C@H](CO)c2ccccc2)nn1 [Example 87, (S)-1-(5-(1-(2-hydroxy-1-phenylethyl)-1H-1,2,3-triazol-4-yl)-4-(isopropylamino)pyridin-2-yl)-1H-pyrazolo[3,4-b]pyridine-5-carbonitrile] | 9 nM | 4530 nM |  |
| CC(=O)N1CC(Cn2cnc(-c3cnc(-n4ncc5cc(C#N)cnc54)cc3NC(C)C)c2)C1 [Example 234, 1-(5-(1-((1-acetylazetidin-3-yl)methyl)-1H-imidazol-4-yl)-4-(isopropylamino)pyridin-2-yl)-1H-pyrazolo[3,4-b]pyridine-5-carbonitrile] | 16 nM | 440 nM |  |
| COC(=O)N1CC(n2cc(-c3cnc(-n4ncc5cc(C#N)cnc54)cc3NC(C)C)nn2)C1 [Example 142, methyl 3-(4-(6-(5-cyano-1H-pyrazolo[3,4-b]pyridin-1-yl)-4-(isopropylamino)pyridin-3-yl)-1H-1,2,3-triazol-1-yl)azetidine-1-carboxylate] | 5 nM | 560 nM |  |
| CC(F)Cc1cn(-c2cnc(-n3cnc4cc(C#N)cnc43)cc2NC(C)C)nn1 (single isomer, unassigned) [Example 291, 3-(5-(4-(2-fluoropropyl)-1H-1,2,3-triazol-1-yl)-4-(isopropylamino)pyridin-2-yl)-3H-imidazo[4,5-b]pyridine-6-carbonitrile] | 14 nM | 850 nM |  |
| CC(C)Nc1cc(-n2ncc3cc(C#N)cnc32)ncc1-n1cc(C2CCC(NC(=O)OC(C)(C)C)CC2)nn1 (stereo not drawn) [Example 342, tert-butyl ((1s,4s)-4-(1-(6-(5-cyano-1H-pyrazolo [3,4-b]pyridin-1-yl)-4-(isopropylamino)pyridin-3-yl)-1H-1,2,3-triazol-4-yl)cyclohexyl) carbamate] | 2 nM | 1120 nM |  |
| CC(C)Cc1cn(-c2cnc(-n3ncc4cc(C#N)cnc43)cc2NC(C)C)nn1 [Example 305, 1-(5-(4-isobutyl-1H-1,2,3-triazol-1-yl)-4-(isopropylamino)pyridin-2-yl)-1H-pyrazolo[3,4-b]pyridine-5-carbonitrile] | 10 nM | 550 nM |  |
| CC(C)Nc1cc(-n2ncc3cc(C#N)cnc32)ncc1-c1cn(C2CN(c3ncccn3)C2)nn1 [Example 147, 1-(4-(isopropylamino)-5-(1-(1-(pyrimidin-2-yl)azetidin-3-yl)-1H-1,2,3-triazol-4-yl)pyridin-2-yl)-1H-pyrazolo[3,4-b]pyridine-5-carbonitrile] | 5 nM | 1060 nM |  |
